This note sets out measurements from PMC9100072, “Modulation of the MOP Receptor (μ Opioid Receptor) by Imidazo[1,2-a]imidazole-5,6-Diones: In Search of the Elucidation of the Mechanism of Action” (Molecules, 2022).

Where “and” joins values, the source holds several entries; their conditions need not be identical. Equal values may be shown once. Read-outs that look alike come from different tables or passages of the source.

The target of one data set is T1, human μ-opioid receptor (Homo sapiens, UniProt P35372).
T1 construct: purchased Perkin Elmer ES-542-M400UA; host or cells: CHO-K1 cells, stably transfected (membranes)
T1 sequence (P35372 whole entry): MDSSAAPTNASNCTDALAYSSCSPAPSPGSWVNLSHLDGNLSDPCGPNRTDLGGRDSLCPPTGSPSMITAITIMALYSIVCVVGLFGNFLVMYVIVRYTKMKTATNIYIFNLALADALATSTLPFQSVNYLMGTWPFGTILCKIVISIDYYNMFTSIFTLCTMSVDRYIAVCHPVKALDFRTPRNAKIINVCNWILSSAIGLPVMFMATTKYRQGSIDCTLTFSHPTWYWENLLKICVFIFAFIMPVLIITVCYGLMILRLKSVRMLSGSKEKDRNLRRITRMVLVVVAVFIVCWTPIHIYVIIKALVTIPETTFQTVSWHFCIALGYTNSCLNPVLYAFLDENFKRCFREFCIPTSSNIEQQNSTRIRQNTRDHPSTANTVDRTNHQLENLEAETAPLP
Nature of the data set: biochemical. The data set is classed as binding. Particulars: for binding to the μ-opioid receptor: tested concentrations 10^−5–10^−10 M.

Data set [1] has as its target T2, human μ-opioid (OP3) receptor (Homo sapiens, UniProt P35372). Nature of the data set: cell-based. Particulars: for Emax at 0.03 µM / Emax: U2OS; for Emax at 0.03 µM: read-out: Emax% (EC87: 30 nM) Antagonist Mode.
Data set [2] has as its target T2, human μ-opioid (OP3) receptor. Nature of the data set: cell-based. The data set is classed as cell-based. More on the design: Emax: dose or concentration left out as unconfirmed.
Where [3] appears, read: read-out: Emax% (EC20: 1 nM) Antagonist Mode.
Setting [4] is: CHO-K1; read-out: Emax% Agonist Mode.
The mark [5] stands for this setting: CHO-K1; read-out: Emax% Antagonist Mode.
Where [6] appears, read: CHO-K1, read-out: Emax% Antagonist Mode.

T2 sequence (P35372 whole entry): as above
Experimental for human μ-opioid receptor: The reaction was terminated by rapid filtration through GF/B filter mate presoaked with 0.5% polyethyleneimine for 30 min. […] Data were fitted to a one-site curve-fitting equation with Prism 6 (GraphPad Software), and Ki values were estimated from the Cheng–Prusoff equation.

The term Emax denotes the size of the effect at its maximum, as opposed to the concentration needed. Turning to `O=C1N=C2N(CCN2c2ccc(Cl)cc2)C1=O` [1e], on human μ-opioid receptor, the “binding to the μ-opioid receptor” value is recorded as “No binding”. For the same molecule, the Emax at 0.03 µM was 19% in data set [1] and 5% in data set [2] (setting [5]). Moreover, the Emax turned out to be 89% in data set [1] (setting [3]), 14% in data set [1] (read-out: Emax% Agonist Mode), 13% in data set [2] (setting [4]) and 8% in data set [2] (setting [5]). Besides, in data set [2], the “Emax% Antagonist Mode” value is given as 3%. Besides, the Emax at 0.0046 µM in data set [2] (setting [5]) amounted to 12%.

The term melting point denotes the temperature, or range, at which the solid turns liquid. `Cc1ccc(N2CCN3C(=O)C(=O)N=C32)cc1` [1c, 1-(4-methylphenyl)-2,3-dihydro-1H-imidazo[1,2-a]imidazole-5,6-dione]: the melting point lay within 236 to 238 °C. Besides, on human μ-opioid receptor, the “binding to the μ-opioid receptor” value was “No binding”. Moreover, the Emax at 0.03 µM in data set [1] amounted to 12%. Further, the Emax in data set [1] (setting [3]) amounted to 97%. Further, the Emax in data set [1] (read-out: Emax% Agonist Mode) came to 15%. Moreover, in data set [2] (setting [4]), the Emax came to 13%. In data set [2] (setting [5]), the Emax came out at 35% and the Emax at 0.0046 µM is 4%. Moreover, in data set [2] (from cAMP functional data (with binding data for the modulator conclusion)), the “pharmacological classification in words” value was “weak antagonist properties”. In addition, in data set [2] (from cAMP functional data (with binding data for the modulator conclusion); listed as 1-(4-methylphenyl)-2,3-dihydro-1H-imidazo[1,2-a]imidazole-5,6-dione), the “pharmacological classification in words” value is “negative allosteric modulator”. Moreover, in data set [2] (pKb Range Antagonist Mode), the Kb is 0.661 nM. Moreover, the Kb in data set [2] (read-out: pKb Range Antagonist Mode (converted)) was 8.91 nM.

As a reminder, the Ki is a dissociation constant, usually derived from enzyme kinetics or from competition with a known ligand. `C[C@@H](O)[C@H](NC(=O)[C@H]1NC(=O)[C@H]([C@@H](C)O)NC(=O)[C@H](CCCNC(=N)N)NC(=O)[C@@H](Cc2c[nH]c3ccccc23)NC(=O)[C@H](Cc2ccc(O)cc2)NC(=O)[C@@H](NC(=O)[C@H](N)Cc2ccccc2)CSSC1(C)C)C(N)=O` [CTAP, {d-Phe}-Cys-Tyr-{d-Trp}-Arg-Thr-{Pen}-Thr-NH2 (disulfide bridge: Cys2-Pen7), reference compound] gave a Ki at human μ-opioid receptor of 4.9 nM. Also, the Emax in data set [2] (CHO-K1, read-out: Emax% Agonist Mode) is 12%. In addition, in data set [2] (setting [6]), the Emax is 100%, the Emax at 0.0046 µM was 100% and the Emax at 0.03 µM is 116%.

For `Cc1cccc(N2CCN3C(=O)C(=O)N=C32)c1` [1b], the melting point fell in the range of 220 to 223 °C. Besides, the “binding to the μ-opioid receptor” value at human μ-opioid receptor is “No binding”. Also, the Emax at 0.03 µM in data set [1] worked out at 12%. The Emax in data set [1] (setting [3]) was determined as 94%. In data set [1] (read-out: Emax% Agonist Mode), the Emax came to 13%. In data set [2], the “Emax% Antagonist Mode” value is 5%. Moreover, the Emax in data set [2] (setting [4]) was found to be 13%. For the same molecule, in data set [2] (setting [5]), the Emax was determined as 10% and the Emax at 0.0046 µM was 6%.

`C[C@@H](NC(=O)[C@@H](N)Cc1ccc(O)cc1)C(=O)NCC(=O)N(C)[C@@H](Cc1ccccc1)C(=O)NCCO` [DAMGO, (2S)-2-[[2-[[(2R)-2-[[(2S)-2-Amino-3-(4-hydroxyphenyl)propanoyl]-amino]-propanoyl]amino]acetyl]-methylamino]-N-(2-hydroxyethyl)-3-phenylpropanamide, reference compound]: in data set [2], the “EC20 of DAMGO” value came out at 1 nM, the “EC80 of DAMGO” value stood at 18 nM, the “EC87 of DAMGO” value worked out at 30 nM and the “Emax% Antagonist Mode” value is listed as 2%. Further, in data set [2] (setting [6]), the maximum response (Emax) is 0% and the Emax at 0.0046 µM was 0%.

As for `O=C1N=C2N(CCN2c2cccc(Cl)c2)C1=O` [1d], the melting point is 279 to 280 °C. The “binding to the μ-opioid receptor” value at human μ-opioid receptor is recorded as “No binding”. In data set [1], the Emax at 0.03 µM came out at 9%. Besides, the Emax in data set [1] (setting [3]) was 92%. Further, the Emax in data set [1] (read-out: Emax% Agonist Mode) turned out to be 15%. Also, the Emax in data set [2] (setting [4]) worked out at 13%. In data set [2] (setting [5]), the Emax came to 22%, the maximum response (Emax) at 0.0046 µM worked out at 4% and the Emax at 0.03 µM came to 5%.

`O=C1N=C2N(CCN2c2ccccc2)C1=O` [1a]: the “binding to the μ-opioid receptor” value on human μ-opioid receptor is recorded as “No binding”. Moreover, the figures for the Emax at 0.03 µM in data set [1] and in data set [2] (setting [5]) were 22% and 9%, respectively. Also, the Emax in data set [1] (setting [3]) was determined as 92%; in data set [1] (read-out: Emax% Agonist Mode), 8%; in data set [2] (setting [4]), 15%; in data set [2] (setting [5]), 6%. The Emax at 0.0046 µM in data set [2] (setting [5]) is 4%.

Take `COC(=O)/C=C/C(=O)N[C@@H]1CC[C@@]2(O)[C@H]3Cc4ccc(O)c5c4[C@@]2(CCN3CC2CC2)[C@H]1O5` [ß-FUNALTREXAMINE, beta-funaltrexamine, reference compound]: on human μ-opioid receptor, the “pKi Range” value is 9.13 (9.10–9.15). For the same molecule, in data set [1], the “Emax% (EC20: 1 nM) Antagonist Mode” value worked out at 122% and the “Emax% (EC87: 30 nM) Antagonist Mode” value turned out to be 127%. Further, the “Emax% Agonist Mode” value in data set [1] (β-arrestin recruitment, fraction of effect of DAMGO) stood at 10%. In addition, in data set [2], the “Emax% Agonist Mode” value is on record as 17%; the “Emax% Antagonist Mode” value is 66% and 40% and 46% and 42%.
